What all share (experiment): NCI tumour cell line growth inhibition, 48 h
Experiment [1] deals with HCT-15 colon.
The test system of experiment [2] is UO-31 renal.
The subject of experiment [3] is COLO 205 colon.
For experiment [4], the system named is IGROV1 ovarian.
The subject of experiment [5] is NCI-H522 lung.
The test system of experiment [6] is HOP-92 NSCLC.
For experiment [7], the system named is SNB-75 CNS.
Experiment [8] deals with M14 melanoma.
In experiment [9] the test system is RPMI-8226 leukemia.
Experiment [10] relates to NCI-H23 lung.

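Grown in 96-well plates, cells were treated for 48 hours with each compound at five concentrations. Insufficient inhibition: endpoint recorded as highest concentration tested. At the GI50, growth is halved. TGI marks complete inhibition of growth.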 Bounds are passed on as bounds.

Consider `O=C(Nc1ccc(-c2nc3ccc(NC(=O)c4ccc(Cl)cc4)cc3[nH]2)cc1)c1ccc(Cl)cc1`, for which the GI50 in experiment [1] is 10.6 µM; in [2] it was 8.19 µM; in experiment [3], 2470 nM; in [4] it was 6.73 µM; in experiment [5], 2950 nM; in experiment [6], 2.68 µM. Besides, the GI50 is 1520 nM in [7], 5.28 µM in experiment [8], 5.77 µM in experiment [9] and 4.63 µM in experiment [10]. Besides, the TGI in [1] is 27.4 µM; in experiment [2], 20 µM; in experiment [3], 6.54 µM; in experiment [4] it was 19.6 µM; in experiment [5], 9.36 µM; in experiment [6] it was 11 µM. In addition, the TGI came to 7.93 µM in experiment [7], 18 µM in [8], 23 µM in experiment [9] and 16.4 µM in experiment [10].

Regarding `CCNC1=CC(=O)c2ncccc2C1=O`, the GI50 in [1] was 0.999 µM; in experiment [2], 1.76 µM; in [3], 1630 nM; in experiment [4] it was 7.91 µM; in experiment [5], 1790 nM; in experiment [6] it was 10.3 µM. Also, the GI50 was 1190 nM in experiment [7], 1.11 µM in experiment [8], 7.08 µM in [9] and 0.504 µM in experiment [10]. Moreover, the TGI in experiment [1] turned out to be 3.22 µM; in experiment [2] it was 7.72 µM; in experiment [3] it was 3.3 µM; in experiment [4] it was 24.5 µM; in [5], 4.23 µM; in [6] it was 25.3 µM. The TGI turned out to be 2.45 µM in experiment [7], 2.46 µM in experiment [8], 29.6 µM in [9] and 2.53 µM in experiment [10].

In the case of `CC(C)=CCC[C@](C)(O)[C@H]1CC[C@]2(C)[C@@H]1CC[C@@H]1[C@@]3(C)CC[C@H](OC(=O)CCC(=O)O)C(C)(C)[C@@H]3CC[C@]12C`, the GI50 in experiment [1] is 19.5 µM; in [2], 13.7 µM; in experiment [3], 27400 nM; in [4], 18.5 µM; in experiment [5] it was 26200 nM; in experiment [6], 14.5 µM. The GI50 in [7] was more than 100000 nM; in experiment [8], 73.6 µM; in [9] it was 7.65 µM; in [10] it was 30.8 µM. Also, the TGI in experiment [1] was 48.6 µM; in [2], 28 µM; in [3], 95.3 µM; in [4] it was 72.7 µM; in experiment [5], more than 100 µM; in experiment [6] it was 35.9 µM. The TGI in [7] is more than 100 µM; in experiment [8], more than 100 µM; in [9], 52.9 µM; in [10], more than 100 µM.

As for `Clc1ccc(CCN2CCOCC2)c(Cl)c1`, the TGI in [1], in experiment [2], in experiment [3], in [4], in experiment [5] and in [6] was more than 100 µM throughout. In addition, the TGI was 83.3 µM in experiment [7], more than 100 µM in experiment [8], more than 100 µM in [9] and more than 100 µM in experiment [10].

For `CCCC/C(C)=N/NC(N)=S`, the TGI in experiment [1], in experiment [2], in experiment [3], in [4], in [5] and in [6] was more than 100 µM in each case. Besides, the TGI in experiment [7], in experiment [8], in experiment [9] and in experiment [10] was more than 100 µM each time.

For `CCCCCCCCSC(SCCCCCCCC)=C1C(=O)N(c2ccccc2)N=C1C`, the TGI is more than 100 µM in [1]; more than 100 µM in experiment [2]; 46.5 µM in experiment [3]; more than 100 µM in experiment [4]; 57.1 µM in experiment [5]; 77.8 µM in experiment [6]. Moreover, the TGI in [7] is more than 100 µM; in experiment [8], more than 100 µM; in experiment [9] it was 61.9 µM; in experiment [10], 95.1 µM.

`Cc1[nH]nc(C(=O)N/N=C/c2cccs2)c1N=NN(C)C`: the TGI in experiment [1] was found to be 38.5 µM; in [2], 21.9 µM; in [3], 28.2 µM; in [4] it was 31.1 µM; in experiment [5], 29.5 µM; in experiment [6] it was 55.1 µM. Moreover, the TGI in [7] was 8.85 µM; in [8] it was more than 100 µM; in experiment [9] it was 89.7 µM; in [10], more than 100 µM.

Consider `C[C@@H]1CC[C@H]2C(CN3CCN(CC4=C(C(F)(F)F)O[C@@H]5O[C@@]6(C)CC[C@H]7[C@H](C)CC[C@@H]4[C@@]57OO6)CC3)=C(C(F)(F)F)O[C@@H]3O[C@@]4(C)CC[C@@H]1[C@]32OO4`, for which the GI50 in [1] was 1.79 µM; in experiment [2], 2.67 µM; in [3], 996 nM; in [4], more than 27.4 µM; in [5] it was 2780 nM; in experiment [6] it was 5.15 µM. Further, the GI50 in experiment [7] is 1740 nM; in experiment [8], 5.74 µM; in [9] it was 0.43 µM; in [10], 2.07 µM. In addition, the TGI in [1] was more than 37.2 µM; in [2] it was 85.8 µM; in [4], more than 100 µM; in experiment [5] it was more than 27 µM; in experiment [6], more than 100 µM; in experiment [7], more than 29.4 µM. The TGI in experiment [8] and in experiment [10] was more than 100 µM each time.

With `CN(NC(=O)/C(=C/C=C/c1ccccc1)NC(=O)c1ccccc1)C1=C(Cl)C(=O)[N+](c2ccccc2)=CC1`, the TGI in experiment [1] was 62.8 µM; in experiment [2] it was more than 100 µM; in experiment [3], 33.7 µM; in experiment [4] it was 46.8 µM; in experiment [5], 61.5 µM; in experiment [6], 80.1 µM. For the same compound, the TGI in [7] is 69.6 µM; in experiment [8], 40.2 µM; in experiment [9], 63.2 µM; in experiment [10], more than 100 µM.

`CCn1c(-c2cc3ccccc3cc2OC(=O)c2ccccc2)n[nH]c1=S`: the GI50 in [1] is more than 50 µM; in [2], 21.1 µM; in experiment [3], more than 50000 nM; in experiment [4], 1.51 µM; in [5] it was 11000 nM; in experiment [6], more than 50 µM. Further, the GI50 in experiment [7] is more than 50000 nM; in experiment [8] it was more than 50 µM; in experiment [9] it was 9.96 µM; in experiment [10] it was 22.5 µM. For the same compound, the TGI in experiment [1] was more than 50 µM; in experiment [2] it was more than 50 µM; in experiment [3] it was more than 50 µM; in [4] it was 8.54 µM; in experiment [5] it was 45.4 µM; in experiment [6] it was more than 50 µM. Further, the TGI in experiment [7] is more than 50 µM; in experiment [8], more than 50 µM; in experiment [9], 23.8 µM; in experiment [10] it was more than 50 µM.

Values taken from PubChem BioAssay (NCI).
